According to US20260209214A1, “LSD1 MODULATORS” (RECURSION PHARMACEUTICALS, INC., priority 2022, published 2026):

These molecules were tested against Recombinant human LSD1 (Homo sapiens, UniProt O60341) (assay: LSD1 inhibition assay (HTRF LSD1 Histone H3K4 mono-demethylation assay, me1->me0)). Conditions: 20 nM recombinant human LSD1, 95 nM H3K4(me1) biotinylated peptide, 15 min preincubation, 60 min at 25° C., read-out: LSD1 inhibition IC50 (nM range).
Type: biochemical
Procedure, shortened: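 Recombinant human LSD1 (20 nM) pre-incubated 15 min with 10 semi-log compound doses, then 95 nM biotinylated H3K4me1 peptide for 60 min at 25 °C in pH 8.5 Tris/NaCl buffer with 10 μM FAD, 1 mM DTT. HTRF me0-antibody read after 90 min; IC50 from 4-parameter fit.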

Row | SMILES | IC50
1 | N#Cc1ccc(-c2cccc(CN3CC4CCC(C3)N4)c2C2CC2)cc1F [Example 210, 2'-cyclopropyl-3'-({3,8-diazabicyclo[3.2.1]octan-3-yl}methyl)-3-fluoro-[1,1'-biphenyl]-4-carbonitrile] | 10 to 25 nM
2 | CN[C@@H]1CCN(Cc2cccc(-c3ccc(C#N)c(F)c3)c2C2CC2)C1 [Example 228, 2'-cyclopropyl-3-fluoro-3'-{[(3R)-3-(methylamino)pyrrolidin-1-yl]-methyl}-[1,1'-biphenyl]-4-carbonitrile] | 100 to 1000 nM
3 | N#Cc1ccc(-c2cccc(CN3CC4CNCC3C4)c2Cl)cc1F (stereo not drawn) [Example 238, 2'-chloro-3'-({3,6-diazabicyclo[3.2.1]octan-6-yl}methyl)-3-fluoro-[1,1'-biphenyl]-4-carbonitrile] | 100 to 1000 nM
4 | N#Cc1ccc(-c2cccc(CN3C4CCC3CNC4)c2C2CC2)cc1F [Example 265, 2'-cyclopropyl-3'-({3,8-diazabicyclo[3.2.1]octan-8-yl}methyl)-3-fluoro-[1,1'-biphenyl]-4-carbonitrile] | 25 to 100 nM
5 | N#Cc1ccc(-c2cccc(CN3CCC4(CCCN4)C3)c2C2CC2)cc1F (stereo not drawn) [Example 266, Fc1cc(ccc1C#N)c2cccc(CN3CCC4(CCCN4)C3)c2C5CC5] | 100 to 1000 nM
6 | N#Cc1ccc(-c2cccc(CN3CCCC4(CCN4)C3)c2C2CC2)cc1F (stereo not drawn) [Example 267, 2'-cyclopropyl-3'-({1,6-diazaspiro[3.5]nonan-6-yl}methyl)-3-fluoro-[1,1'-biphenyl]-4-carbonitrile] | 100 to 1000 nM
7 | N#Cc1ccc(-c2cccc(CN3CC[C@@H]4NCCC[C@@H]43)c2C2CC2)cc1F [Example 271, Fc1cc(ccc1C#N)c2cccc(CN3CC[C@@H]4NCCC[C@H]34)c2C5CC5] | 100 to 1000 nM
8 | CN[C@H]1CCCCN(Cc2cccc(-c3ccc(C#N)c(F)c3)c2C2CC2)C1 [Example 272, 2'-cyclopropyl-3-fluoro-3'-{[(3S)-(methylamino)azepan-1-yl]methyl}-[1,1'-biphenyl]-4-carbonitrile] | 100 to 1000 nM
9 | N#Cc1ccc(-c2cccc(CN3C4CNCC3C4)c2C2CC2)cc1F [Example 274, 2'-cyclopropyl-3'-({3,6-diazabicyclo[3.1.1]heptan-6-yl}methyl)-3-fluoro-[1,1'-biphenyl]-4-carbonitrile] | 100 to 1000 nM
10 | CN1CCC2CN(Cc3cccc(-c4ccc(C#N)c(F)c4)c3C3CC3)CC21 (stereo not drawn) [Example 276, 2'-cyclopropyl-3-fluoro-3'-({1-methyl-octahydropyrrolo[2,3-c]pyrrol-5-yl}methyl)-[1,1'-biphenyl]-4-carbonitrile] | 100 to 1000 nM
11 | CC1(C)CN(Cc2cccc(-c3ccc(C#N)c(F)c3)c2C2CC2)CC1N (stereo not drawn) [Example 278, 3'-[(4-amino-3,3-dimethylpyrrolidin-1-yl)methyl]-2'-cyclopropyl-3-fluoro-[1,1'-biphenyl]-4-carbonitrile] | 100 to 1000 nM
12 | N#Cc1ccc(-c2cccc(Cn3ncc4c3CNCC4)c2-c2cncs2)cc1F [Example 280, 3-fluoro-3'-({1H,4H,5H,6H,7H-pyrazolo[3,4-c]pyridin-1-yl}methyl)-2'-(1,3-thiazol-5-yl)-[1,1'-biphenyl]-4-carbonitrile] | 100 to 1000 nM
13 | N#Cc1ccc(-c2cccc(CN3CCCCC34CCCNC4)c2Cl)cc1F (stereo not drawn) [Example 281, 2'-chloro-3'-({1,8-diazaspiro[5.5]undecan-1-yl}methyl)-3-fluoro-[1,1'-biphenyl]-4-carbonitrile] | > 1000 nM
14 | N#Cc1ccc(-c2cccc(CN3CC4CCC3CN4)c2Cl)cc1F (stereo not drawn) [Example 283, 2'-chloro-3'-({2,5-diazabicyclo[2.2.2]octan-2-yl}methyl)-3-fluoro-[1,1'-biphenyl]-4-carbonitrile] | 100 to 1000 nM

Continued, values first:

Row | IC50 | SMILES
15 | 25 to 100 nM | CN[C@H]1CCN(Cc2cccc(-c3ccc(C#N)c(F)c3)c2C2CC2)C1 [Example 211, 2'-cyclopropyl-3-fluoro-3'-{[(3S)-3-(methylamino)pyrrolidin-1-yl]methyl}-[1,1'-biphenyl]-4-carbonitrile]
16 | 25 to 100 nM | CN[C@H]1CCCN(Cc2cccc(-c3ccc(C#N)c(F)c3)c2C2CC2)CC1 [Example 215, 2'-cyclopropyl-3-fluoro-3'-{[(4S)-4-(methylamino)azepan-1-yl]methyl}-[1,1'-biphenyl]-4-carbonitrile]
17 | < 10 nM | COCC1CCN(c2ccc(CN3C[C@]4(N)CC[C@H]3C4)cc2-c2ccc(C#N)c(F)c2)CC1 [Example 216, 5'-{[(1S,4S)-4-amino-2-azabicyclo[2.2.1]heptan-2-yl]methyl}-3-fluoro-2'-[4-(methoxymethyl)piperidin-1-yl]-[1,1'-biphenyl]-4-carbonitrile]
18 | 10 to 25 nM | N#Cc1ccc(-c2cc(CN3C[C@]4(N)CC[C@H]3C4)ccc2N2CCC3(CCCO3)CC2)cc1F [Example 217, 5'-{[(1S,4S)-4-amino-2-azabicyclo[2.2.1]heptan-2-yl]methyl}-3-fluoro-2'-{1-oxa-8-azaspiro[4.5]decan-8-yl}-[1,1'-biphenyl]-4-carbonitrile]
19 | 100 to 1000 nM | N#Cc1ccc(-c2cccc(CN3C[C@@]4(N)CC[C@@H]3C4)c2C2CC2)cc1F [Example 225, 3'-{[(1R,4R)-4-amino-2-azabicyclo[2.2.1]heptan-2-yl]methyl}-2'-cyclopropyl-3-fluoro-[1,1'-biphenyl]-4-carbonitrile]
20 | 100 to 1000 nM | Cc1cc(CNCC2CCN(C)C2)c(Cl)c(-c2ccc(C#N)c(F)c2)c1 (stereo not drawn) [Example 226, 2'-chloro-3-fluoro-5'-methyl-3'-({[(1-methylpyrrolidin-3-yl)methyl]amino}methyl)-[1,1'-biphenyl]-4-carbonitrile]
21 | 25 to 100 nM | N#Cc1ccc(-c2cccc(CN3CC4CCC3C(N)C4)c2C2CC2)cc1F (stereo not drawn) [Example 227, 3'-({6-amino-2-azabicyclo[2.2.2]octan-2-yl}methyl)-2'-cyclopropyl-3-fluoro-[1,1'-biphenyl]-4-carbonitrile]
22 | 10 to 25 nM | Cn1nc2ccc(-c3ccc(CN4C[C@@]5(N)CC[C@@H]4C5)cc3-c3ccc(C#N)c(F)c3)cc2c1Cl [Example 233, 5'-{[(1R,4R)-4-amino-2-azabicyclo[2.2.1]heptan-2-yl]methyl}-2'-(3-chloro-2-methyl-2H-indazol-5-yl)-3-fluoro-[1,1'-biphenyl]-4-carbonitrile]
23 | < 10 nM | N#Cc1ccc(-c2cc(CN3C[C@]4(N)CC[C@H]3C4)ccc2N2CCC3(CCOC3)CC2)cc1F [Example 234, 5'-{[(1S,4S)-4-amino-2-azabicyclo[2.2.1]heptan-2-yl]methyl}-3-fluoro-2'-{2-oxa-8-azaspiro[4.5]decan-8-yl}-[1,1'-biphenyl]-4-carbonitrile]
24 | 25 to 100 nM | N#Cc1ccc(-c2cccc(Cn3cc4c(n3)CNCC4)c2-c2cncs2)cc1F [Example 236, 3-fluoro-3'-({2H,4H,5H,6H,7H-pyrazolo[3,4-c]pyridin-2-yl}methyl)-2'-(1,3-thiazol-5-yl)-[1,1'-biphenyl]-4-carbonitrile]
25 | 10 to 25 nM | N#Cc1ccc(-c2cccc(CN3C[C@@H]4C[C@@H](N)[C@H]3C4)c2-c2cncs2)cc1F [Example 237, 3'-{[(1R,4R,6R)-6-amino-2-azabicyclo[2.2.1]heptan-2-yl]methyl}-3-fluoro-2'-(1,3-thiazol-5-yl)-[1,1'-biphenyl]-4-carbonitrile]
26 | 25 to 100 nM | CN1CCC12CCN(Cc1c(F)ccc(-c3ccc(C#N)c(F)c3)c1N1CCC1)C2 (stereo not drawn) [Example 239, 2'-(azetidin-1-yl)-3,4'-difluoro-3'-({1-methyl-1,6-diazaspiro[3.4]octan-6-yl}methyl)-[1,1'-biphenyl]-4-carbonitrile]
27 | 10 to 25 nM | C[C@@]1(N)CCN(Cc2cccc(-c3ccc(C#N)c(F)c3)c2-c2ccns2)C1 [Example 242, 3'-{[(3R)-3-amino-3-methylpyrrolidin-1-yl]methyl}-3-fluoro-2'-(1,2-thiazol-5-yl)-[1,1'-biphenyl]-4-carbonitrile]
28 | 10 to 25 nM | CC(C)C1(O)CCN(c2ccc(CN3C[C@]4(N)CC[C@H]3C4)cc2-c2ccc(C#N)c(F)c2)CC1 [Example 262, 5'-{[(1S,4S)-4-amino-2-azabicyclo[2.2.1]heptan-2-yl]methyl}-3-fluoro-2'-[4-hydroxy-4-(propan-2-yl)piperidin-1-yl]-[1,1'-biphenyl]-4-carbonitrile]
29 | < 10 nM | Cn1nc2ccc(-c3ccc(CN4C[C@]5(N)CC[C@H]4C5)cc3-c3ccc(C#N)c(F)c3)cc2c1Cl [Example 263, 5'-{[(1S,4S)-4-amino-2-azabicyclo[2.2.1]heptan-2-yl]methyl}-2'-(3-chloro-2-methyl-2H-indazol-5-yl)-3-fluoro-[1,1'-biphenyl]-4-carbonitrile]
30 | 10 to 25 nM | Cn1cc2cc(-c3ccc(CN4C[C@]5(N)CC[C@H]4C5)cc3-c3ccc(C#N)c(F)c3)ccc2n1 [Example 264, 5'-{[(1S,4S)-4-amino-2-azabicyclo[2.2.1]heptan-2-yl]methyl}-3-fluoro-2'-(2-methyl-2H-indazol-5-yl)-[1,1'-biphenyl]-4-carbonitrile]
31 | 25 to 100 nM | N#Cc1ccc(-c2cccc(CN3CC[C@@H]4NCC[C@@H]43)c2C2CC2)cc1F [Example 273, 3'-{[(3aS,6aS)-octahydropyrrolo[3,2-b]pyrrol-1-yl]methyl}-2'-cyclopropyl-3-fluoro-[1,1'-biphenyl]-4-carbonitrile]
32 | 25 to 100 nM | CN1CC2CN(Cc3cccc(-c4ccc(C#N)c(F)c4)c3C3CC3)CC21 (stereo not drawn) [Example 277, 2'-cyclopropyl-3-fluoro-3'-({6-methyl-3,6-diazabicyclo[3.2.0]heptan-3-yl}methyl)-[1,1'-biphenyl]-4-carbonitrile]

Same assay, conditions: LSD1 inhibition IC50 (nM range), 20 nM recombinant human LSD1, 95 nM H3K4(me1) biotinylated peptide, 15 min preincubation, 60 min at 25° C.

Row | SMILES | IC50
33 | CN1CC2(C1)CN(Cc1cccc(-c3ccc(C#N)c(F)c3)c1Cl)C2 [Example 214, CN1CC2(C1)CN(Cc3cccc(c3Cl)c4ccc(C#N)c(F)c4)C2] | > 1000 nM
